{"source": "paper PMC5362750", "about": "“Discovery of Potent, Selective, and Orally Bioavailable Small-Molecule Modulators of the Mediator Complex-Associated Kinases CDK8 and CDK19” (Journal of Medicinal Chemistry, 2016)", "key": {"A1 (h)": {"target": "A1 (h) (Homo sapiens, UniProt P30542)", "assay": "CEREP binding assay", "conditions": "agonist radioligand, read-out: % Inhibition of Control Specific Binding"}, "MCH1 (h)": {"target": "T1, MCH1 (h) (Homo sapiens, UniProt Q99705)", "T1 construct": "purchased Millipore (KinaseProfiler) kinase panel", "assay": "CEREP binding assay", "conditions": "agonist radioligand, read-out: % Inhibition of Control Specific Binding"}, "CKIT": {"target": "T2, CKIT (Homo sapiens, UniProt P10721)", "T2 construct": "purchased Millipore (KinaseProfiler) kinase panel", "T2 sequence (P10721 26-976)": "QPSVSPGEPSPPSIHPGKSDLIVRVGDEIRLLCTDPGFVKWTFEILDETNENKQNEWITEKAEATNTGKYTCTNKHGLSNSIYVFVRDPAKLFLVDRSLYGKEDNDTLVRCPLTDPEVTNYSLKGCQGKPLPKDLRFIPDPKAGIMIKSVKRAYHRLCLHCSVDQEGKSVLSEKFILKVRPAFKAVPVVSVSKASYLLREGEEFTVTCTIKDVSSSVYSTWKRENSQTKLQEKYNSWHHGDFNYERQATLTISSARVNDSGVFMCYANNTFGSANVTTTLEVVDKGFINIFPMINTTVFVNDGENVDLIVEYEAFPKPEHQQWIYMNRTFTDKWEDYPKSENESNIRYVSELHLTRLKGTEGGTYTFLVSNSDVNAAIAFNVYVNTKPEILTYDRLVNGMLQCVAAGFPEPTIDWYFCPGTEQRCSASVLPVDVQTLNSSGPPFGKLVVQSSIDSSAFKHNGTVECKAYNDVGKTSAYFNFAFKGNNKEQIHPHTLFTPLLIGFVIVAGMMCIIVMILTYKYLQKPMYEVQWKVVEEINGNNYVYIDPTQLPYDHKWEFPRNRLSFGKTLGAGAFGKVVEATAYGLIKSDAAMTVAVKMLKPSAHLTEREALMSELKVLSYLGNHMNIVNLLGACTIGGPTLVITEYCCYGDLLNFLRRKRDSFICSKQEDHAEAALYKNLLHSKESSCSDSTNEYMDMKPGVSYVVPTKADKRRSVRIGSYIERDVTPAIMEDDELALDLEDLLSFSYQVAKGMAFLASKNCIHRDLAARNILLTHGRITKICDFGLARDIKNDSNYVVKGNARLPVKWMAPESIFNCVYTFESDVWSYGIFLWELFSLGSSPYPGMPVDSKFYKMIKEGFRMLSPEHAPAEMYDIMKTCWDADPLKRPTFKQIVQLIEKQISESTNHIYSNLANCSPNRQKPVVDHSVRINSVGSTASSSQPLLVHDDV", "assay": "Kinase panel (Millipore)", "format": "biochemical", "conditions": "1 µM, ATP at Km"}, "ASK1": {"target": "ASK1 (Homo sapiens, UniProt Q99683)", "assay": "Kinase panel (Millipore)", "format": "biochemical", "conditions": "1 µM, ATP at Km"}, "LYN": {"target": "LYN (Homo sapiens, UniProt P07948)", "assay": "Kinase panel (Millipore)", "format": "biochemical", "conditions": "1 µM, ATP at Km"}, "MAPKAP-K3": {"target": "T3, MAPKAP-K3 (Homo sapiens, UniProt Q16644)", "T3 construct": "purchased Millipore (KinaseProfiler) kinase panel", "assay": "Kinase panel (Millipore)", "format": "biochemical", "conditions": "1 µM, ATP at Km"}, "FGFR1": {"target": "T4, FGFR1 (Homo sapiens, UniProt P11362)", "T4 construct": "purchased Millipore (KinaseProfiler) kinase panel", "assay": "Kinase panel (Millipore)", "format": "biochemical", "conditions": "1 µM, ATP at Km"}, "FGFR3": {"target": "T5, FGFR3 (Homo sapiens, UniProt P22607)", "T5 construct": "purchased Millipore (KinaseProfiler) kinase panel", "assay": "Kinase panel (Millipore)", "format": "biochemical", "conditions": "1 µM, ATP at Km"}, "MSK1": {"target": "MSK1 (Homo sapiens, UniProt O75582)", "sequence (O75582 whole entry)": "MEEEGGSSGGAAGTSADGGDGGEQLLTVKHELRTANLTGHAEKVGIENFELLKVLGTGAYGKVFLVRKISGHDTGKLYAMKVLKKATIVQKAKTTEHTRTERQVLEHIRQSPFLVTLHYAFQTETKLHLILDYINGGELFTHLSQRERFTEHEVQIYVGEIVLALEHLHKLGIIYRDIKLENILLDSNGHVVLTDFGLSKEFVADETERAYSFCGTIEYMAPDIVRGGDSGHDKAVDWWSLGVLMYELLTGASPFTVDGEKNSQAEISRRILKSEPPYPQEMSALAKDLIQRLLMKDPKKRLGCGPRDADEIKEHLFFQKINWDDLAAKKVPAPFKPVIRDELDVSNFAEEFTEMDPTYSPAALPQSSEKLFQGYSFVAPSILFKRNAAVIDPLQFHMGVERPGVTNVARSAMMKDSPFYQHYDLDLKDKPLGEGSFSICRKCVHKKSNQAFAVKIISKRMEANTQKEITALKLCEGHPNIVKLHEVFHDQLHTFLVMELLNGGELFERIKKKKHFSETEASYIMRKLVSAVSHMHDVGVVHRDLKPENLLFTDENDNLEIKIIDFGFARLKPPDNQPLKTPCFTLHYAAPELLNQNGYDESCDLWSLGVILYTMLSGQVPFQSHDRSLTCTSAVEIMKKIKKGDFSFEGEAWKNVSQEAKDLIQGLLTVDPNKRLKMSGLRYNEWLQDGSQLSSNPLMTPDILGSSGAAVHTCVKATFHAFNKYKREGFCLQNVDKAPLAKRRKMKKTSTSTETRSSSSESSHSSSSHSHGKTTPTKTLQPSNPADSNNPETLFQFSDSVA", "assay": "Kinase panel (Millipore)", "format": "biochemical", "conditions": "1 µM, ATP at Km"}, "NEK2": {"target": "NEK2 (Homo sapiens, UniProt P51955)", "sequence (P51955 whole entry)": "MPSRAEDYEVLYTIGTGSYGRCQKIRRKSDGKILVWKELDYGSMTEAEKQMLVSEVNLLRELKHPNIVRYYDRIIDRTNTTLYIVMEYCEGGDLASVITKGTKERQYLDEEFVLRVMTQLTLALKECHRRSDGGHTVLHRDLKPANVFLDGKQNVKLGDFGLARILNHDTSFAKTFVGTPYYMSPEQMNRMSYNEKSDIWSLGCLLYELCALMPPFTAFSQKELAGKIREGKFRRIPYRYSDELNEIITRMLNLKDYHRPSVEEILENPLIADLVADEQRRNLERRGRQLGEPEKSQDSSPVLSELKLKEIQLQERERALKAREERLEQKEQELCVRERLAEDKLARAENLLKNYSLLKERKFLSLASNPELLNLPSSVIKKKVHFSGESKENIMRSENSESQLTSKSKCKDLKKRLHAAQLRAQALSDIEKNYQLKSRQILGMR", "assay": "Kinase panel (Millipore)", "format": "biochemical", "conditions": "1 µM, ATP at Km"}, "DAPK1": {"target": "T6, DAPK1 (Homo sapiens, UniProt P53355)", "T6 construct": "purchased Millipore (KinaseProfiler) kinase panel", "assay": "Kinase panel (Millipore)", "format": "biochemical", "conditions": "1 µM, ATP at Km"}, "PAK4": {"target": "T7, PAK4 (Homo sapiens, UniProt O96013)", "T7 construct": "purchased Millipore (KinaseProfiler) kinase panel", "assay": "Kinase panel (Millipore)", "format": "biochemical", "conditions": "1 µM, ATP at Km"}, "PAK6": {"target": "PAK6 (Homo sapiens, UniProt Q9NQU5)", "assay": "Kinase panel (Millipore)", "format": "biochemical", "conditions": "1 µM, ATP at Km"}, "PASK": {"target": "T8, PASK (Homo sapiens, UniProt Q96RG2)", "T8 construct": "purchased Millipore (KinaseProfiler) kinase panel", "assay": "Kinase panel (Millipore)", "format": "biochemical", "conditions": "1 µM, ATP at Km"}, "PI3K GAMMA": {"target": "PI3K GAMMA (Homo sapiens, UniProt P48736)", "assay": "Kinase panel (Millipore)", "format": "biochemical", "conditions": "1 µM, ATP at Km"}, "PKBALPHA": {"target": "PKBALPHA (Homo sapiens, UniProt P31749)", "sequence (P31749 whole entry)": "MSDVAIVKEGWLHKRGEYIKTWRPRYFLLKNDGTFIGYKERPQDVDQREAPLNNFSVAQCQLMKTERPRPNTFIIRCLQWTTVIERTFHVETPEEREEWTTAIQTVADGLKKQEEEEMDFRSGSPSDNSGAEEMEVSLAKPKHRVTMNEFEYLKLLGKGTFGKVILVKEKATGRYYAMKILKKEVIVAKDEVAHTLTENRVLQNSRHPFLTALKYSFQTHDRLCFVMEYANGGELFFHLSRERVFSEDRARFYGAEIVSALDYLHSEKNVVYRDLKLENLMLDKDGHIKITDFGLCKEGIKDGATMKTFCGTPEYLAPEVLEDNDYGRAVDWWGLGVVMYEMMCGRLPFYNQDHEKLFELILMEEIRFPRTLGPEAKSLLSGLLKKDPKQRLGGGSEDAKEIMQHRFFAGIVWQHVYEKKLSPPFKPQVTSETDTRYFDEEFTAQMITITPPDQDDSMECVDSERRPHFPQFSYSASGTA", "assay": "Kinase panel (Millipore)", "format": "biochemical", "conditions": "1 µM, ATP at Km"}, "GCK": {"target": "T9, GCK (Homo sapiens, UniProt Q12851)", "T9 construct": "purchased Millipore (KinaseProfiler) kinase panel", "assay": "Kinase panel (Millipore)", "format": "biochemical", "conditions": "1 µM, ATP at Km"}, "PKCBII": {"target": "PKCBII (Homo sapiens, UniProt P05771)", "assay": "Kinase panel (Millipore)", "format": "biochemical", "conditions": "1 µM, ATP at Km"}, "TAK1": {"target": "T10, TAK1 (Homo sapiens, UniProt O43318)", "T10 construct": "purchased Millipore (KinaseProfiler) kinase panel", "T10 sequence (O43318 1-303 limits assumed)": "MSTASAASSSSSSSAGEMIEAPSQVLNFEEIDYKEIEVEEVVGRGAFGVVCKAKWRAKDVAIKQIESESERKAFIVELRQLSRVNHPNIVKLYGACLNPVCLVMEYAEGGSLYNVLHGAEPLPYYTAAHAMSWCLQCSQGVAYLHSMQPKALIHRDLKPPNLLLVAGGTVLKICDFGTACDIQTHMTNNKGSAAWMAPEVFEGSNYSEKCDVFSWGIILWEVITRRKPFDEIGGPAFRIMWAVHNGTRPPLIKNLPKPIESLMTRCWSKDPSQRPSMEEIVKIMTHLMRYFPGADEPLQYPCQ", "assay": "Kinase panel (Millipore)", "format": "biochemical", "conditions": "1 µM, ATP at Km"}, "TLK2": {"target": "T11, TLK2 (Homo sapiens, UniProt Q86UE8)", "T11 construct": "purchased Millipore (KinaseProfiler) kinase panel", "assay": "Kinase panel (Millipore)", "format": "biochemical", "conditions": "1 µM, ATP at Km"}, "PKCGAMMA": {"target": "PKCGAMMA (Homo sapiens, UniProt P05129)", "assay": "Kinase panel (Millipore)", "format": "biochemical", "conditions": "1 µM, ATP at Km"}, "PKCIOTA": {"target": "T12, PKCIOTA (Homo sapiens, UniProt P41743)", "T12 construct": "purchased Millipore (KinaseProfiler) kinase panel", "assay": "Kinase panel (Millipore)", "format": "biochemical", "conditions": "1 µM, ATP at Km"}, "TSSK1": {"target": "T13, TSSK1 (Homo sapiens, UniProt Q9BXA7)", "T13 construct": "purchased Millipore (KinaseProfiler) kinase panel", "assay": "Kinase panel (Millipore)", "format": "biochemical", "conditions": "1 µM, ATP at Km"}, "WNK2": {"target": "T14, WNK2 (Homo sapiens, UniProt Q9Y3S1)", "T14 construct": "purchased Millipore (KinaseProfiler) kinase panel", "assay": "Kinase panel (Millipore)", "format": "biochemical", "conditions": "1 µM, ATP at Km"}, "CLK2": {"target": "CLK2 (Homo sapiens, UniProt P49760)", "sequence (P49760 whole entry)": "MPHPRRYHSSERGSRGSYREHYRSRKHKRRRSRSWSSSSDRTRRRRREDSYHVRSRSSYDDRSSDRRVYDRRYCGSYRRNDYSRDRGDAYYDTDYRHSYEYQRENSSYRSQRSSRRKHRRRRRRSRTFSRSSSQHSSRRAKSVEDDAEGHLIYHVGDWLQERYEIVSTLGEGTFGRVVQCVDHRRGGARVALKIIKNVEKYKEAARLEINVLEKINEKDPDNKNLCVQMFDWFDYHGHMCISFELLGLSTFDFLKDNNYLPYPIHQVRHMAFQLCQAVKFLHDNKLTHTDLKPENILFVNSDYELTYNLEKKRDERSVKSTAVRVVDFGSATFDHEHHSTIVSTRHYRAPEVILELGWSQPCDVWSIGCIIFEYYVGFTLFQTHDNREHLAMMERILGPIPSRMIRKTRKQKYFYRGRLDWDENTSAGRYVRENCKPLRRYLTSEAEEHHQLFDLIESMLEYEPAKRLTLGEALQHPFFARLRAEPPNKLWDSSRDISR", "assay": "Kinase panel (Millipore)", "format": "biochemical", "conditions": "1 µM, ATP at Km"}, "PLK1": {"target": "PLK1 (Homo sapiens, UniProt P53350)", "assay": "Kinase panel (Millipore)", "format": "biochemical", "conditions": "1 µM, ATP at Km"}, "ROS": {"target": "T15, ROS (Homo sapiens, UniProt P08922)", "T15 construct": "purchased Millipore (KinaseProfiler) kinase panel", "assay": "Kinase panel (Millipore)", "format": "biochemical", "conditions": "1 µM, ATP at Km"}, "RSE": {"target": "T16, RSE (Homo sapiens, UniProt Q06418)", "T16 construct": "purchased Millipore (KinaseProfiler) kinase panel", "assay": "Kinase panel (Millipore)", "format": "biochemical", "conditions": "1 µM, ATP at Km"}, "GABA transporter": {"test_system": "GABA transporter", "conditions": "10 µM, antagonist radioligand"}, "CDK3/CYCLINE": {"target": "CDK3/CYCLINE (Homo sapiens, UniProt Q00526)", "conditions": "1 µM, ATP at Km"}, "CK2": {"target": "CK2 (Homo sapiens, UniProt P68400)", "conditions": "1 µM, ATP at Km"}, "EGFR(L858R)": {"target": "EGFR(L858R) (Homo sapiens, UniProt P00533, L858R)", "conditions": "1 µM, ATP at Km"}, "SAPK2A(T106M)": {"target": "SAPK2A(T106M) (Homo sapiens, UniProt Q16539, T106M)", "sequence (Q16539 whole entry T106M)": "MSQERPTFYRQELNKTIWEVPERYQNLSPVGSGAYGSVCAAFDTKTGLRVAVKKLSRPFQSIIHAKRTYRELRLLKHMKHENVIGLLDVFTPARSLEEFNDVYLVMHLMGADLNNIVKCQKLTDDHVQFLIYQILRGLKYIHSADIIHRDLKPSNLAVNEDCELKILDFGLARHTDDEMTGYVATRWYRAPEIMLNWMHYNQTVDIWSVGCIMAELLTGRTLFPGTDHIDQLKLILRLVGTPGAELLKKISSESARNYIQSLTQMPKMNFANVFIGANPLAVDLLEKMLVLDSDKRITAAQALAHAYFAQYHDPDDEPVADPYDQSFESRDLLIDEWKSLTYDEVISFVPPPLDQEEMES", "conditions": "1 µM, ATP at Km"}, "FGFR2(N549H)": {"target": "FGFR2(N549H) (Homo sapiens, UniProt P21802, N549H)", "conditions": "1 µM, ATP at Km"}, "ABL (H396P)": {"target": "ABL (H396P) (Homo sapiens, UniProt P00519, H396P)", "conditions": "1 µM, ATP at Km"}, "ABL (Q252H)": {"target": "ABL (Q252H) (Homo sapiens, UniProt P00519, Q252H)", "conditions": "1 µM, ATP at Km"}, "TIE2(R849W)": {"target": "TIE2(R849W) (Homo sapiens, UniProt Q02763, R849W)", "conditions": "1 µM, ATP at Km"}, "CKIT(D816H)": {"target": "CKIT(D816H) (Homo sapiens, UniProt P10721, D816H)", "sequence (P10721 544-976 D816H limits assumed)": "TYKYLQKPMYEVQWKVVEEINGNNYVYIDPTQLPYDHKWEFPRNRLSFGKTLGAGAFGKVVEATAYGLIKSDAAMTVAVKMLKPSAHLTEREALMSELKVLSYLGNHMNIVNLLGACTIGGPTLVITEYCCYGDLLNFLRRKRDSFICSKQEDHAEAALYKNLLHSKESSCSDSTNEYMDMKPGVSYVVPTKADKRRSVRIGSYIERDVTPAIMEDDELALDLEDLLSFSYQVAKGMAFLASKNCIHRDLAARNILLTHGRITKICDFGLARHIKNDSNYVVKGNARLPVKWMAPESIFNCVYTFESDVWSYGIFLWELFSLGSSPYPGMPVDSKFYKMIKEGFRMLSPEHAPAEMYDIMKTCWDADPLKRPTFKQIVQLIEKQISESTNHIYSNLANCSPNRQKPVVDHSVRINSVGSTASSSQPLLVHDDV", "conditions": "1 µM, ATP at Km"}, "cMET (Y1248H)": {"target": "cMET (Y1248H) (Homo sapiens, UniProt P08581, Y1230H)", "conditions": "1 µM, ATP at Km"}, "D3 (h)": {"target": "D3 (h) (Homo sapiens, UniProt P35462)", "assay": "biochemical", "conditions": "read-out: % Inhibition of Control Specific Binding"}}, "data": [{"smiles": "Cn1ncc2cc(-c3cnc(N)c(Cl)c3N3CCC4(CCNC4=O)CC3)ccc21", "note": "[Compound 109, 8-(2-Amino-3-chloro-5-(1-methyl-1H-indazol-5-yl)pyridin-4-yl)-2,8-diazaspiro[4.5]decan-1-one]", "values": [{"measurement": "inhibition at 10 µM", "setting": "A1 (h)", "value": -4, "unit": "%"}, {"measurement": "inhibition at 10 µM", "setting": "MCH1 (h)", "value": 34, "unit": "%"}, {"measurement": "% effect", "setting": "CKIT", "value": -5, "unit": "%"}, {"measurement": "% effect", "setting": "ASK1", "value": 17, "unit": "%"}, {"measurement": "% effect", "setting": "LYN", "value": -3, "unit": "%"}, {"measurement": "% effect", "setting": "MAPKAP-K3", "value": 5, "unit": "%"}, {"measurement": "% effect", "setting": "FGFR1", "value": 7, "unit": "%"}, {"measurement": "% effect", "setting": "FGFR3", "value": -9, "unit": "%"}, {"measurement": "% effect", "setting": "MSK1", "value": -3, "unit": "%"}, {"measurement": "% effect", "setting": "NEK2", "value": 4, "unit": "%"}, {"measurement": "% effect", "setting": "DAPK1", "value": -8, "unit": "%"}, {"measurement": "% effect", "setting": "PAK4", "value": -1, "unit": "%"}, {"measurement": "% effect", "setting": "PAK6", "value": 2, "unit": "%"}, {"measurement": "% effect", "setting": "PASK", "value": -20, "unit": "%"}, {"measurement": "% effect", "setting": "PI3K GAMMA", "value": 7, "unit": "%"}, {"measurement": "% effect", "setting": "PKBALPHA", "value": 3, "unit": "%"}, {"measurement": "% effect", "setting": "GCK", "value": -10, "unit": "%"}, {"measurement": "% effect", "setting": "PKCBII", "value": 3, "unit": "%"}, {"measurement": "% effect", "setting": "TAK1", "value": -14, "unit": "%"}, {"measurement": "% effect", "setting": "TLK2", "value": -5, "unit": "%"}, {"measurement": "% effect", "setting": "PKCGAMMA", "value": -6, "unit": "%"}, {"measurement": "% effect", "setting": "PKCIOTA", "value": -5, "unit": "%"}, {"measurement": "% effect", "setting": "TSSK1", "value": -7, "unit": "%"}, {"measurement": "% effect", "setting": "WNK2", "value": 27, "unit": "%"}, {"measurement": "% effect", "setting": "CLK2", "value": -2, "unit": "%"}, {"measurement": "% effect", "setting": "PLK1", "value": -3, "unit": "%"}, {"measurement": "% effect", "setting": "ROS", "value": 8, "unit": "%"}, {"measurement": "% effect", "setting": "RSE", "value": 1, "unit": "%"}, {"measurement": "Cl", "setting": "human", "value": "∼0.36 L/h/kg"}, {"measurement": "F", "setting": "human", "value": "∼70%"}, {"measurement": "Vd", "setting": "human", "value": "∼1.4 L/kg"}, {"measurement": "clearance prediction, allometry with correction by fu and BrW", "setting": "human", "value": 5.72, "unit": "mL/min/kg"}, {"measurement": "clearance prediction, allometry with correction by fu and MLP", "setting": "human", "value": 8.52, "unit": "mL/min/kg"}, {"measurement": "clearance prediction, iviv from hepatocytes", "setting": "human", "value": 3.58, "unit": "mL/min/kg"}, {"measurement": "volume prediction, range of allometry methods", "setting": "human", "value": "1.3 to 1.5", "unit": "L/kg"}, {"measurement": "t1/2", "setting": "human prediction", "value": "∼2.7 h"}, {"measurement": "% Inhibition of Control Specific Binding", "setting": "GABA transporter", "value": 3, "unit": "%"}, {"measurement": "% effect", "setting": "CDK3/CYCLINE", "value": 6, "unit": "%"}, {"measurement": "% effect", "setting": "CK2", "value": 3, "unit": "%"}, {"measurement": "% effect", "setting": "EGFR(L858R)", "value": -4, "unit": "%"}, {"measurement": "% effect", "setting": "SAPK2A(T106M)", "value": 2, "unit": "%"}, {"measurement": "% effect", "setting": "FGFR2(N549H)", "value": 1, "unit": "%"}, {"measurement": "% effect", "setting": "ABL (H396P)", "value": -4, "unit": "%"}, {"measurement": "% effect", "setting": "ABL (Q252H)", "value": -10, "unit": "%"}, {"measurement": "% effect", "setting": "TIE2(R849W)", "value": -9, "unit": "%"}, {"measurement": "% effect", "setting": "CKIT(D816H)", "value": 1, "unit": "%"}, {"measurement": "% effect", "setting": "cMET (Y1248H)", "value": -5, "unit": "%"}, {"measurement": "inhibition at 10 µM", "setting": "D3 (h)", "value": 7, "unit": "%"}]}]}
